Results as given in patent US20090170812A1, “Transcription factor modulating compounds and methods of use thereof” (priority 2006, published 2009).
pEC50: −log10 of the molar value.

What was measured:
[1] = molecular target: LcrF (VirF) (Yersinia pestis, UniProt P28808); assay: biochemical; type: binding, Y. pseudotuberculosis
[2] = molecular target: T1, ExsA (Pseudomonas aeruginosa, UniProt P26993); assay: In vitro activity of Mar inhibitors against ExsA: cell-free DNA binding assay; settings: purified ExsA from P. aeruginosa, inhibition of DNA binding in vitro
T1 construct: made in house
T1 sequence (P26993 1-278): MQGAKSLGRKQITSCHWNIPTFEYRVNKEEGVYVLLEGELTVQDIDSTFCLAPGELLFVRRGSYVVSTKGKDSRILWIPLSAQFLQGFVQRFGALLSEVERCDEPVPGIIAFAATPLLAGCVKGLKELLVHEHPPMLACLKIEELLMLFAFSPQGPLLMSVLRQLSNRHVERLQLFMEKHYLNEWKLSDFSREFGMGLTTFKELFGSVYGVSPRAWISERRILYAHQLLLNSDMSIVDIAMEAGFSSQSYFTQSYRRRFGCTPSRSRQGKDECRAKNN

[3] = system: Yersinia pseudotuberculosis
[4] = system: P. aeruginosa; assay: Whole cell assay: cytotoxicity of P. aeruginosa toward J774 cells (CytoTox 96, LDH release); settings: percent cytotoxicity of treated P. aeruginosa toward J774 cells

Sequence of LcrF (VirF) (P28808 whole entry, looked up): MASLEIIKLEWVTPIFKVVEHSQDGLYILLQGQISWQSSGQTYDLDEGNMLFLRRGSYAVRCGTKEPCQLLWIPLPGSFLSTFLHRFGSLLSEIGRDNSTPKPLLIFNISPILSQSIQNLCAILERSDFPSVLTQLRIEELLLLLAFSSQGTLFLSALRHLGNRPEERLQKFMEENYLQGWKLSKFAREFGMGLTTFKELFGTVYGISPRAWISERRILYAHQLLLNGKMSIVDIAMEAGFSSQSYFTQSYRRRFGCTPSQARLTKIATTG

Row | Structure (SMILES) | pEC50 [1] | pEC50 [2] | Cytotoxicity at 50 μg/mL Yersinia [3] | Cytotoxicity at 50 μg/mL Pseudomonas [4]
1 | CCc1cc(-c2nc3ccc([N+](=O)[O-])cc3n2O)ccc1NC(=O)c1ccc(C(C)=O)cc1 [AA] | 4.60 to 5.00 | 4.60 to 5.00 | * (key: *: percent cytotoxicity above 75% at 50 μg/mL; **: cytotoxicities below 75% at 50 μg/mL) | * (percent cytotoxicities above 75% at 50 mg/mL)
2 | O=C(Nc1ccc(-c2nc3ccc([N+](=O)[O-])cc3n2O)nc1)c1ccc(F)cc1 [AF] | < 4.60 | < 4.60 | * (key: *: percent cytotoxicity above 75% at 50 μg/mL; **: cytotoxicities below 75% at 50 μg/mL) | 
3 | O=C(Nc1ccc(-c2nc3ccc([N+](=O)[O-])cc3n2OCP(=O)(O)O)cc1)c1ccc(F)cc1 [AK] |  |  | * (key: *: percent cytotoxicity above 75% at 50 μg/mL; **: cytotoxicities below 75% at 50 μg/mL) | 
4 | CCOP(=O)(COn1c(-c2ccc(NC(=O)c3ccc(F)cc3)cc2)nc2ccc([N+](=O)[O-])cc21)OCC [AU] |  |  | * (key: *: percent cytotoxicity above 75% at 50 μg/mL; **: cytotoxicities below 75% at 50 μg/mL) | 
5 | O=C(Nc1ccc(-c2nc3ccncc3n2O)cc1)c1ccc(F)cc1 [AX] |  |  | * (key: *: percent cytotoxicity above 75% at 50 μg/mL; **: cytotoxicities below 75% at 50 μg/mL) | 
6 | O=C(/C=C/c1ccc(F)cc1)Nc1ccc(-c2nc3ccncc3n2O)cc1 [AY] |  |  | * (key: *: percent cytotoxicity above 75% at 50 μg/mL; **: cytotoxicities below 75% at 50 μg/mL) | 
7 | Cc1cc(-c2nc3ccc([N+](=O)[O-])cc3n2O)ccc1NC(=O)/C=C/c1ccc(F)cc1 [BB] | 4.60 to 5.00 | < 4.60 | * (key: *: percent cytotoxicity above 75% at 50 μg/mL; **: cytotoxicities below 75% at 50 μg/mL) | 
8 | O=C(Nc1ccc(-c2nc3ccc([N+](=O)[O-])cc3n2O)cc1)c1ccc2c(c1)CCCC2=O [BD] | < 4.60 | < 4.60 | * (key: *: percent cytotoxicity above 75% at 50 μg/mL; **: cytotoxicities below 75% at 50 μg/mL) | 
9 | CC(=O)c1ccc(C(=O)Nc2ccc(-c3nc4ccc([N+](=O)[O-])cc4n3O)cc2C)cc1 [BF] |  | > 5.00 | * (key: *: percent cytotoxicity above 75% at 50 μg/mL; **: cytotoxicities below 75% at 50 μg/mL) | 
10 | CN(C)C(=O)c1ccc(C(=O)Nc2ccc(-c3nc4ccc([N+](=O)[O-])cc4n3O)cc2)cc1 [BP] |  |  | * (key: *: percent cytotoxicity above 75% at 50 μg/mL; **: cytotoxicities below 75% at 50 μg/mL) | * (percent cytotoxicities above 75% at 50 mg/mL)
11 | CN(C)CCN(C)c1cc2nc(-c3ccc(NC(=O)/C=C/c4ccc(F)cc4)cc3)n(O)c2cc1[N+](=O)[O-] [CE] | > 5.00 | > 5.00 |  | ** (cytotoxicities below 75% at 50 mg/mL)
12 | CN1CCN(CCOc2cc3nc(-c4ccc(NC(=O)/C=C/c5ccc(F)cc5)cc4)n(O)c3cc2[N+](=O)[O-])CC1 [CF] | > 5.00 | > 5.00 |  | * (percent cytotoxicities above 75% at 50 mg/mL)
13 | CN(C)CCOc1cc2nc(-c3ccc(NC(=O)/C=C/c4ccc(F)cc4)cc3)n(O)c2cc1[N+](=O)[O-] [CG] |  | < 4.60 |  | * (percent cytotoxicities above 75% at 50 mg/mL)
14 | O=C(/C=C/c1ccc(F)cc1)Nc1ccc(-c2nc3ccc(-n4ccnc4)cc3n2O)cc1 [CH] | < 4.60 | 4.60 to 5.00 |  | * (percent cytotoxicities above 75% at 50 mg/mL)
15 | CC(=O)c1ccc(/C=C/C(=O)Nc2ccc(-c3nc4cc(OCCN5CCN(C)CC5)c([N+](=O)[O-])cc4n3O)cc2)cc1 [CI] | > 5.00 | > 5.00 |  | ** (cytotoxicities below 75% at 50 mg/mL)
16 | CC(=O)c1ccc(/C=C/C(=O)Nc2ccc(-c3nc4cc(OCCN5CCOCC5)c([N+](=O)[O-])cc4n3O)cc2)cc1 [CJ] |  |  |  | ** (cytotoxicities below 75% at 50 mg/mL)
17 | CC(=O)c1ccc(/C=C/C(=O)Nc2ccc(-c3nc4ccc(C#N)cc4n3O)cc2)cc1 [CK] | 4.60 to 5.00 | 4.60 to 5.00 |  | ** (cytotoxicities below 75% at 50 mg/mL)
